From US20090130707A1, “Methods of reducing the inhibitory effect of a redox active metal ion on the enzymatic hydrolysis of cellulosic material” (priority 2007, published 2009)
Read-outs that look alike come from different tables or passages of the source. One block for each compound: values may come before it.

Key:
[1] = test system: Cellulolytic Enzyme Composition #1; assay: mini-scale PCS hydrolysis by Cellulolytic Enzyme Composition #1; type: biochemical, Trichoderma reesei; conditions: for cellobiose level in the hydrolysis products versus absence of the compounds: PCS hydrolysis; for Effect of chelator on enzyme in the absence of FeSO4: PCS hydrolysis (FIGS. 23A-23D)
Experimental: The effect of various salts (FeSO4, FeCl2, NaCl, Na2SO4, MnSO4, MnCl2) was determined in the hydrolysis of PCS by Cellulolytic Enzyme Composition #2. The PCS hydrolysis was performed in duplicate in capped 1.7 ml EPPENDORF® tubes (“mini-scale”) containing 1 ml suspensions of 43.4 g of PCS (dry weight) per liter, 10 mM salts in 50 mM sodium acetate pH 5. Cellulolytic Enzyme Composition #2 was added at 0.25 g per liter. Reactions without the addition of the salt served as controls. The capped tubes were incubated at 50° C. in an INNOVA® 4080 incubator shaker (New Brunswick Scientific Co., Inc., Edison, N.J., USA) at 150 rpm.
(§1) Aliquots of the suspensions, sampled over time, were filtered by centrifugation using a 0.45 μm MULTISCREEN® HV membrane (Millipore, Billerica, Mass., USA) at 2000 rpm for 15 minutes using a SORVALL® RT7 centrifuge (Thermo Fisher Scientific, Waltham, Mass., USA). When not used immediately, the filtered sugary aliquots were frozen at −20° C. Sugar concentrations of the samples diluted in 0.005 M H2SO4 were measured after elution from a 4.6×250 mm AMINEX® HPX-87H column (Bio-Rad, Hercules, Calif., USA) by 0.005 M H2SO4 at a flow rate of 0.4 ml/minute at 65° C. with quantitation by integration of glucose and cellobiose using refractive index detection (CHEMSTATION®, AGILENT® 1100 HPLC, Agilent Technologies, Santa Clara, Calif., USA) calibrated with standards of glucose and cellobiose. The resultant equivalents were used to calculate the percentage of cellulose conversion for each reaction.
Example 30 was repeated with both Cellulolytic Enzyme Composition #1 and Cellulolytic Enzyme Composition #2. Soluble reducing sugars were measured by HPLC as described in Example 30. Reactions without the addition of FeSO4 served as controls.
The hydrolysis was performed in a series of duplicate “mini-scale” hydrolysis reactions according to the procedure described in Example 30.

[2] = test system: Cellulolytic Enzyme Composition #1; assay: Pre-incubation of iron ion with AVICEL or enzyme, then AVICEL hydrolysis; type: biochemical, Trichoderma reesei
Experimental: To test whether Fe(II) affects cellulose or cellulase, 10 mM FeCl2 was pre-incubated with either 25 g of AVICEL® or 0.25 g of Cellulolytic Enzyme Composition #1 per liter of 50 mM sodium acetate pH 5 for three days. “Fe-pretreated” AVICEL® was washed and Cellulolytic Enzyme Composition #1 was gel-filtered using BioSpin 6 desalting columns (Bio-Rad, Hercules, Calif., USA) to remove residual Fe ion. Fe-pretreated AVICEL® was hydrolyzed with fresh Cellulolytic Enzyme Composition #1 or Cellulolytic Enzyme Composition #1 subjected to “FeCl2-less” pre-incubation and gel filtration. Fe-pretreated Cellulolytic Enzyme Composition #1 was applied to hydrolyze fresh AVICEL® or AVICEL® subjected to “FeCl2-less” pre-incubation and washing, in comparison with the hydrolysis of fresh AVICEL® ([…]) by fresh Cellulolytic Enzyme Composition #1 ([…]), with or without 10 mM FeCl2. All hydrolyses were performed using the “mini-plate-scale” hydrolysis reaction procedure described in Example 32, except for the change in cellulose or cellulase described above.
To test whether Fe(III) affected cellulose or cellulase, 10 mM FeCl3 was pre-incubated with either 25 g of AVICEL® or 0.25 g of Cellulolytic Enzyme Composition #1 per liter of 50 mM sodium acetate pH 5 for three days. All hydrolyses were performed using the “mini-plate-scale” hydrolysis reactions according to the procedure described in Example 32, except for the change in cellulose or cellulase described above.

[3] = test system: Cellulolytic Enzyme Composition #1; assay: mini-plate-scale PASC hydrolysis by Cellulolytic Enzyme Composition #1; type: biochemical, Trichoderma reesei; conditions: 10 mM; 2 g PASC and 0.01 g enzyme per liter
Experimental: (§2) Various (biologically common) divalent metal cations with variable ionic radii were tested in 2.8 ml Deep Well Microplates (VWR International, West Chester, Pa., USA) (“mini-plate-scale”) containing 1 ml suspensions of 25 g of AVICEL® per liter in 50 mM sodium acetate pH 5 at 50° C. Cellulolytic Enzyme Composition #1 was added at 0.25 g per liter for each hydrolysis. The mini-plates were sealed at 160° C. for 2 seconds using an ABGENE® ALPS 300™ sealer (ABgene, Rochester, N.Y., USA). The sealed mini-plates were incubated at 50° C. in an INNOVA® 4080 incubator shaker at 150 rpm. Soluble reducing sugars were measured by HPLC as described in Example 30.
In one series of “mini-scale” hydrolysis reactions performed according to the procedure described in Example 30, the effect of 1 mM to 10 mM FeSO4 was evaluated in the hydrolysis of AVICEL® by Cellulolytic Enzyme Composition #1. In a series of “mini-plate-scale” hydrolysis reactions performed according to the procedure described in Example 32, the effect of 1 mM to 10 mM FeSO4 was evaluated in the hydrolysis of PASC by Cellulolytic Enzyme Composition #1, except 2 g of PASC and 0.05 g Cellulolytic Enzyme Composition #1 per liter of 50 mM sodium acetate pH 5 were used.
The above study was extended to a range of concentration of Fe(II) and cellulose. In a series of “mini-plate-scale” hydrolysis reactions performed according to the procedure described in Example 32, except that 0.1 to 10 mM FeSO4, 0.6 to 4 g of PASC and 0.01 g of Cellulolytic Enzyme Composition #1 per liter of 50 mM sodium acetate pH 5 were used.

[4] = test system: Cellulolytic Enzyme Composition #1; assay: Pre-incubation of iron ion with PASC or enzyme, then PASC hydrolysis; type: biochemical, Trichoderma reesei
Experimental: The “pre-incubation” study was also performed for the hydrolysis of PASC. The experiments were similar to those described above, except 2 g of PASC, replacing AVICEL®, and 0.01 g of Cellulolytic Enzyme Composition #1 per liter of 50 mM sodium acetate pH 5, and 3 days pre-incubation were used. All hydrolyses were performed using the “mini-plate-scale” hydrolysis reaction according to the procedure described in Example 32, except for the change in cellulose or cellulase described above.

[5] = cited from earlier work
[6] = test system: Cellulolytic Enzyme Composition #1; assay: mini-plate-scale AVICEL hydrolysis by Cellulolytic Enzyme Composition #1; type: biochemical, Trichoderma reesei; conditions: for Effect on enzymatic cellulolysis: loss in initial rate / Effect on enzymatic cellulolysis: loss in extended hydrolysis extent: 10 mM, 25 g AVICEL and 0.25 g enzyme per liter, pH 5, 50° C.; for Effect on enzymatic cellulolysis: loss in extended hydrolysis extent: after 4 days
Experimental: as §2
Iron-chelator complexes of variable size or redox property were tested for their ability to inhibit enzymatic hydrolysis of cellulose. […]

[7] = test system: Cellulolytic Enzyme Composition #2; assay: mini-plate-scale PCS hydrolysis by Cellulolytic Enzyme Composition #2 with H2O2 and ferric ion chelator; type: biochemical, Trichoderma reesei; conditions: for Effect on the inhibition by ferrous ion: 2.5 mM FeSO4, 10 mM H2O2 for 30 minutes, 10 mM desferrioxamine
Experimental: However, prior to the addition of Cellulolytic Enzyme Composition #2, the mixture of PCS and FeSO4 was treated with 10 mM H2O2 for 30 minutes. In some cases, 10 mM desferrioxamine was also added. Reactions without the addition of FeSO4 or H2O2 served as controls.

[8] = test system: Cellulolytic Enzyme Composition #2; assay: mini-scale PCS hydrolysis by Cellulolytic Enzyme Composition #2; type: biochemical, Trichoderma reesei; conditions: 10 mM salt; 43.4 g PCS and 0.25 g enzyme per liter, 50 mM sodium acetate pH 5, 50° C.
Experimental: Corn stover was pretreated at the U.S. Department of Energy National Renewable Energy Laboratory (NREL), […], Colo., USA, using dilute sulfuric acid. The following conditions were used for the pretreatment: 1.4 wt % sulfuric acid at 195° C. for 4.5 minutes. According to limit digestion with excess cellulase enzymes, the water-insoluble solids in the pretreated corn stover (PCS) contained 59.5% cellulose. Prior to use, the PCS was washed with a large volume of deionized water until soluble acid and sugars were removed. The dry weight of the water-washed PCS was 19.16%.
The effect of various salts (FeSO4, FeCl2, NaCl, Na2SO4, MnSO4, MnCl2) was determined in the hydrolysis of PCS by Cellulolytic Enzyme Composition #2. […] Cellulolytic Enzyme Composition #2 was added at 0.25 g per liter. Reactions without the addition of the salt served as controls. The capped tubes were incubated at 50° C. in an INNOVA® 4080 incubator shaker (New Brunswick Scientific Co., Inc., Edison, N.J., USA) at 150 rpm.
as §1
The degree of cellulose conversion to glucose plus cellobiose (% conversion) was calculated using the following equation:
% Conversion=(glucose+cellobiose×1.053)(mg/ml)×100×162/cellulose(mg/ml)×180)=(glucose+cellobiose×1.053)(mg/ml)×100/(cellulose(mg/ml)×1.111)
In this equation the factor 1.111 reflects the weight gain in converting cellulose to glucose, and the factor 1.053 reflects the weight gain in converting cellobiose to glucose. Cellulose in PCS was determined by a limit digest of PCS to release glucose and cellobiose.

[9] = 10 mM fresh salt, fresh AVICEL, fresh enzyme
[10] = 10 mM, pre-incubated three days with AVICEL
[11] = 10 mM, pre-incubated three days with Cellulolytic Enzyme Composition #1
[12] = fresh salt, PASC, enzyme fresh or buffer pre-incubated
[13] = pre-incubated 3 days with Cellulolytic Enzyme Composition #1

Compound: c1cnc2c(c1)ccc1ncccc12 [1,7-Phenanthroline]
cellobiose level in the hydrolysis products versus absence of the compounds [1]: about twice
Effect of chelator on enzyme in the absence of FeSO4 [1]: essentially benign

cellobiose level in the hydrolysis products versus absence of the compounds [1]: about twice
Compound: c1cnc2c(c1)ccc1cccnc12 [1,10-phenanthroline]
Effect of chelator on enzyme in the absence of FeSO4 [1]: significant inhibition

Compound: [Cl][Fe]([Cl])[Cl] [Fe(III), FeCl3]
loss in extent of hydrolysis [2, 9]: ~90%
loss in initial rate [2, 9]: ~90%
loss in extent of hydrolysis [2, 10]: ~80%
loss in initial rate [2, 10]: ~80%
loss in extent of hydrolysis [2, 11]: ~20%
loss in initial rate [2, 11]: ~20%
loss of extent of hydrolysis after 4 days [3]: ~80%
loss of initial hydrolysis rate [3]: ~80%
loss in extent of hydrolysis [4, 12]: approximately 30%
loss in initial rate [4, 12]: ~70%
loss in extent of hydrolysis [4, 13]: no loss
loss in initial rate [4, 13]: ~50%
loss in extent of hydrolysis ([4]; pre-incubated 3 days with PASC): ~10%
loss in initial rate ([4]; pre-incubated 3 days with PASC): ~50%
Radius ([5]; ionic radii in crystals, 6-ligand coordination): 0.55 Å
E° ([5]; single-electron redox potential vs NHE): 0.771 V
Effect on enzymatic cellulolysis: loss in initial rate [6]: ~90% loss in initial rate, ~90% loss in extended hydrolysis extent
Effect on enzymatic cellulolysis: loss in extended hydrolysis extent [6]: ~90% loss in initial rate, ~90% loss in extended hydrolysis extent
Effect on enzymatic cellulolysis: loss in extended hydrolysis extent ([6]; listed as FeCl3): ~90%
Effect on enzymatic cellulolysis: loss in initial rate ([6]; listed as FeCl3): ~90%
IC50 ([6]; AVICEL hydrolysis, 0.2 to 2 mM inhibitor, read-out: I50): 500 ± 400 µM

Compound: O=C([O-])CC(O)(CC(=O)[O-])C(=O)[O-].[Fe+3] [Fe(III)-citrate, Fe-citrate]
E° ([5]; single-electron oxidation potential of iron-chelator complexes): −0.191^2 V
Effect on hydrolysis of PCS ([7]; 1 and 10 mM): did not affect
Effect on enzymatic cellulolysis: loss in initial rate [6]: No significant change
Effect on enzymatic cellulolysis: loss in extended hydrolysis extent [6]: no change

Compound: [Cl][Fe][Cl] [FeCl2, ferrous chloride]
loss in extent of hydrolysis [2, 9]: ~50%
loss in initial rate [2, 9]: ~50%
loss in extent of hydrolysis [2, 10]: ~10%
loss in initial rate [2, 10]: ~10%
loss in extent of hydrolysis [2, 11]: ~20%
loss in initial rate [2, 11]: ~20%
loss of extent of hydrolysis after 4 days [3]: ~30%
loss of initial hydrolysis rate [3]: ~30%
loss in extent of hydrolysis [4, 12]: no loss
loss in initial rate [4, 12]: approximately 30%
loss in extent of hydrolysis [4, 13]: no loss
loss in initial rate [4, 13]: ~70%
loss in extent of hydrolysis ([4]; pre-incubated 3 days with PASC): no loss
loss in initial rate ([4]; pre-incubated 3 days with PASC): ~60%
Effect on PCS hydrolysis [8]: significant inhibition

Compound: OO [H2O2, Hydrogen peroxide]
Effect on the inhibition by ferrous ion [7]: reduced the inhibitory effect
Effect on hydrolysis in the absence of Fe(II) ([7]; 10 mM H2O2 with or without 10 mM desferrioxamine (FIG. 22B)): only affected the hydrolysis slightly

Compound: CC(=O)N(O)CCCCCNC(=O)CCC(=O)N(O)CCCCCNC(=O)CCC(=O)N(O)CCCCCN [desferrioxamine]
Effect on the inhibition by ferrous ion [7]: mitigated almost all
increase in hydrolysis extent ([7]; 10 mM, alone): approximately 2%
